Results from the supplement of paper PMC10307832.

Assays:
Test in all cases: relative viability (nuclei count vs DMSO), 5 days (fraction); higher = more cells survive
[1] = compound: CC1=NC=CC(=C1)C2=CC=C(C=C2)CC(=O)NC3=CC=C(C=C3)C4=CN=CC=C4 [Wnt-C59] + CC(C)C[C@H](NC(=O)[C@H](Cc1ccccc1)NC(=O)c1cnccn1)B(O)O [Bortezomib] (partner 0.002 µM)
Method in brief: (§1)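 Cells from lung cancer lines were seeded into 1536-well plates and, one day later, dosed by pin tool. Treatments were either a single drug or a fixed dose of an anchor drug with five library-drug doses (not always all listed) in √10 steps. After 5 days, nuclei were stained in a one-step fixation (final 0.05% Triton X-100, 1% formaldehyde, 1 ug/ml Hoechst) and counted on 4× images, and relative viability is the treated-to-vehicle nuclei ratio, as the median of duplicate plates.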

[2] = compound: CC1=NC=CC(=C1)C2=CC=C(C=C2)CC(=O)NC3=CC=C(C=C3)C4=CN=CC=C4 [Wnt-C59] + NC(=O)Nc1cc(-c2cccc(F)c2)sc1C(=O)N[C@H]1CCCNC1 [AZD7762] (partner 0.2 µM)
Method in brief: as §1

[3] = compound: CS(=O)(=O)CCNCc1ccc(-c2ccc3ncnc(Nc4ccc(OCc5cccc(F)c5)c(Cl)c4)c3c2)o1 [Lapatinib] + C[C@@H](Oc1cc(-c2cnn(C3CCNCC3)c2)cnc1N)c1c(Cl)ccc(F)c1Cl [Crizotinib] (partner 1 µM)
Method in brief: as §1

[4] = compound: CS(=O)(=O)CCNCc1ccc(-c2ccc3ncnc(Nc4ccc(OCc5cccc(F)c5)c(Cl)c4)c3c2)o1 [Lapatinib] + O=C(c1cc(Cc2n[nH]c(=O)c3ccccc23)ccc1F)N1CCN(C(=O)C2CC2)CC1 [Olaparib] (partner 8 µM)
Method in brief: as §1

| Cell Line | relative viability ([1]; first compound 0.001 µM) | relative viability ([1]; first compound 0.01 µM) | relative viability ([1]; first compound 0.03162 µM) | relative viability ([1]; first compound 0.1 µM) | relative viability ([2]; first compound 0.001 µM) | relative viability ([2]; first compound 0.01 µM) | relative viability ([2]; first compound 0.03162 µM) | relative viability ([2]; first compound 0.1 µM) | relative viability ([3]; first compound 0.02 µM) | relative viability ([3]; first compound 0.06325 µM) | relative viability ([3]; first compound 0.2 µM) | relative viability ([3]; first compound 0.6325 µM) | relative viability ([3]; first compound 2 µM) | relative viability ([4]; first compound 0.02 µM) | relative viability ([4]; first compound 0.06325 µM) | relative viability ([4]; first compound 0.2 µM) | relative viability ([4]; first compound 0.6325 µM) | relative viability ([4]; first compound 2 µM) |
| --- | --- | --- | --- | --- | --- | --- | --- | --- | --- | --- | --- | --- | --- | --- | --- | --- | --- | --- |
| NCI-H838 | 0.905 | 0.655 | 0.739 | 0.754 | 0.958 | 0.942 | 0.966 | 0.883 | 0.838 | 0.764 | 1.07 | 0.855 | 0.757 | 0.773 | 0.715 | 0.771 | 0.746 | 0.575 |
| HCC-78 | 0.571 | 0.515 | 0.609 | 0.422 | 0.59 | 0.653 | 0.688 | 0.624 |  | 0.236 | 0.315 | 0.297 | 0.229 |  | 0.519 | 0.926 | 0.814 | 0.846 |
| NCI-H460 | 0.934 | 1.06 | 1.14 | 1.1 | 0.554 | 0.605 | 0.568 | 0.673 | 0.892 | 0.953 | 1.11 | 0.802 | 0.983 |  | 0.406 | 0.421 | 0.41 | 0.262 |
| HOP-62 | 0.826 | 0.752 | 0.658 | 0.931 | 0.403 | 0.598 | 0.769 | 0.478 |  | 0.892 | 0.991 | 0.934 | 0.948 |  | 0.4 | 0.59 | 0.328 | 0.369 |
| NCI-H1915 | 0.943 | 0.951 | 1.05 | 0.934 | 0.761 | 0.69 | 0.708 | 0.69 |  | 0.868 | 0.887 | 0.846 | 0.86 |  | 0.277 | 0.275 | 0.243 | 0.237 |
| NCI-H650 | 0.85 | 1.08 | 0.72 | 0.888 | 0.883 | 1.03 | 0.969 | 1.24 |  | 0.637 | 0.872 | 0.624 | 0.69 |  | 0.355 | 0.372 | 0.397 | 0.337 |
| NCI-H3122 | 0.998 | 0.972 | 1.04 | 0.958 | 1.03 | 0.949 | 1.05 | 0.973 | 0.277 | 0.224 | 0.27 | 0.268 | 0.274 | 0.582 | 0.576 | 0.595 | 0.627 | 0.558 |
| NCI-H2085 | 1.16 | 0.898 | 1.07 | 1.16 | 0.901 | 0.865 | 1.06 | 0.957 | 0.824 | 0.996 | 0.759 | 0.807 | 0.616 | 0.744 | 0.795 | 0.8 | 0.711 | 0.581 |
